This passage reports Kd results from ChEMBL document CHEMBL3991601, “The target landscape of clinical kinase drugs” (Science, 2017).

Activity calls are given as the source filed them. For most assays here, no stated cut-off is given here; in the data, actives have a measured Kd and inactives only a lower limit. Where only a bound is given, the exact number is not on record here.

Assay [1] has as its target AP2-associated protein kinase 1 (Homo sapiens, UniProt Q2M2I8).
In assay [2] the target is Atypical kinase COQ8A, mitochondrial (Homo sapiens, UniProt Q8NI60).
Atypical kinase COQ8A, mitochondrial, sequence (Q8NI60 whole entry, the tested form may be a part): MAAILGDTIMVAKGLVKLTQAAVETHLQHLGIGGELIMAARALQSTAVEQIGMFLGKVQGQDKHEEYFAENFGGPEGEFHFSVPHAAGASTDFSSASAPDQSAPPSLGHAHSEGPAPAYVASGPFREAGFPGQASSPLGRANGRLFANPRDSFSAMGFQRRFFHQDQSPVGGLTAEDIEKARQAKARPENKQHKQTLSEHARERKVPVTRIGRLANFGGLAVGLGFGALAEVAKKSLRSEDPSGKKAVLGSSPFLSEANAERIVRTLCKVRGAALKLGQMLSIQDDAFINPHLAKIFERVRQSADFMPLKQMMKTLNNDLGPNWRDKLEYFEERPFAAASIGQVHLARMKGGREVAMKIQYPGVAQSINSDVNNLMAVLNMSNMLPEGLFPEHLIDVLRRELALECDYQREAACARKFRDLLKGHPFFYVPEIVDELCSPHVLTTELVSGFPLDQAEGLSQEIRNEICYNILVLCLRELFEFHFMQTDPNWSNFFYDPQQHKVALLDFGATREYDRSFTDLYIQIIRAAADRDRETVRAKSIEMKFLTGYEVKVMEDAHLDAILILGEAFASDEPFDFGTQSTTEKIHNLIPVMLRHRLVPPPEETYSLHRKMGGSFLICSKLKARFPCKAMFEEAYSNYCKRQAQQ
In assay [3] the target is T1, Discoidin domain-containing receptor 2 (Homo sapiens, UniProt Q16832).
T1 sequence (Q16832 whole entry): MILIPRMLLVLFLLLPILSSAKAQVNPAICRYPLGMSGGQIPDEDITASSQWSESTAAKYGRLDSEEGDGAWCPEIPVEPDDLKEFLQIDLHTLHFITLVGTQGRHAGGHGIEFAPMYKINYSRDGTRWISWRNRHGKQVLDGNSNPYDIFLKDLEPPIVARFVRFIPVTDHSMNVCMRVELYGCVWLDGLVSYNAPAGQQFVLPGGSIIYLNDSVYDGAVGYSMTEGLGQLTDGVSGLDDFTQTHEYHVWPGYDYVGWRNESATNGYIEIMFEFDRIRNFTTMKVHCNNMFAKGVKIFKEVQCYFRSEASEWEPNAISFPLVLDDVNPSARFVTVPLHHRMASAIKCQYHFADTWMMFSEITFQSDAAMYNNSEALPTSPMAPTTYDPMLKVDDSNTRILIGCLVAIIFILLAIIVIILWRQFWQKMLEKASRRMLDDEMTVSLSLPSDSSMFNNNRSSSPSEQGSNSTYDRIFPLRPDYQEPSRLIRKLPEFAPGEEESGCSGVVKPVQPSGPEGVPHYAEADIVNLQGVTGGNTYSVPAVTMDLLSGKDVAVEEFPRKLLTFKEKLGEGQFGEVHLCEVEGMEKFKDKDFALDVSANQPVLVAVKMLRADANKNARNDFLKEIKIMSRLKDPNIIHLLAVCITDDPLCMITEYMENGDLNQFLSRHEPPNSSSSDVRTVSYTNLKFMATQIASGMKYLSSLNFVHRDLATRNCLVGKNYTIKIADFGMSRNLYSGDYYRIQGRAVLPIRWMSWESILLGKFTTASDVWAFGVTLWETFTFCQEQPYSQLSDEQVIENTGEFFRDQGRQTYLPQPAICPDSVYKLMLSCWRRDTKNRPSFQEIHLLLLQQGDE

In assay [4] the target is Fibroblast growth factor receptor 1 (Homo sapiens, UniProt P11362).
Fibroblast growth factor receptor 1, sequence (P11362 whole entry): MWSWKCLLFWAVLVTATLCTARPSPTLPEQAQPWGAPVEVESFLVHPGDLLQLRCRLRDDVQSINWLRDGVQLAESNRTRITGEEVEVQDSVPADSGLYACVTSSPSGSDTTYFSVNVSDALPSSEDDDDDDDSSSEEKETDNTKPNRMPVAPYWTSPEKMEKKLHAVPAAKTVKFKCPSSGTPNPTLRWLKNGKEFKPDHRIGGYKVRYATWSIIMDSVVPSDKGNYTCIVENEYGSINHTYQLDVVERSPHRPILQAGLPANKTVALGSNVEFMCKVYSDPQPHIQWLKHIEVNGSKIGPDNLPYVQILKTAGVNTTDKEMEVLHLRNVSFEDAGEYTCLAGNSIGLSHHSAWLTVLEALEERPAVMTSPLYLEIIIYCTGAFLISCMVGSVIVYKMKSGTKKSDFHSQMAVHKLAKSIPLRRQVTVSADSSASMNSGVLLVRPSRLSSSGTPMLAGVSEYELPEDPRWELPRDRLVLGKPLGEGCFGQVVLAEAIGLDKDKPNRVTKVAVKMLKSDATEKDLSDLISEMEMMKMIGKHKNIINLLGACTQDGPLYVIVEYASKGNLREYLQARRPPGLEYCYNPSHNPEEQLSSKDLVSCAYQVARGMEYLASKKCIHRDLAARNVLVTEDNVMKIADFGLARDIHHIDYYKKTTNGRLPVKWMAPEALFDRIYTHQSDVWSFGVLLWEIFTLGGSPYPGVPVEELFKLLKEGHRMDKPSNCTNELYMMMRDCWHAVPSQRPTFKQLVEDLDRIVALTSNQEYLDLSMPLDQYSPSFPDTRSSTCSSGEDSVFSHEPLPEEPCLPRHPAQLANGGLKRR
Assay [5] addresses Tyrosine-protein kinase HCK (Homo sapiens, UniProt P08631).
For assay [6], the target named is T2, Mitogen-activated protein kinase kinase kinase 5 (Homo sapiens, UniProt Q99683).
T2 sequence (Q99683 whole entry): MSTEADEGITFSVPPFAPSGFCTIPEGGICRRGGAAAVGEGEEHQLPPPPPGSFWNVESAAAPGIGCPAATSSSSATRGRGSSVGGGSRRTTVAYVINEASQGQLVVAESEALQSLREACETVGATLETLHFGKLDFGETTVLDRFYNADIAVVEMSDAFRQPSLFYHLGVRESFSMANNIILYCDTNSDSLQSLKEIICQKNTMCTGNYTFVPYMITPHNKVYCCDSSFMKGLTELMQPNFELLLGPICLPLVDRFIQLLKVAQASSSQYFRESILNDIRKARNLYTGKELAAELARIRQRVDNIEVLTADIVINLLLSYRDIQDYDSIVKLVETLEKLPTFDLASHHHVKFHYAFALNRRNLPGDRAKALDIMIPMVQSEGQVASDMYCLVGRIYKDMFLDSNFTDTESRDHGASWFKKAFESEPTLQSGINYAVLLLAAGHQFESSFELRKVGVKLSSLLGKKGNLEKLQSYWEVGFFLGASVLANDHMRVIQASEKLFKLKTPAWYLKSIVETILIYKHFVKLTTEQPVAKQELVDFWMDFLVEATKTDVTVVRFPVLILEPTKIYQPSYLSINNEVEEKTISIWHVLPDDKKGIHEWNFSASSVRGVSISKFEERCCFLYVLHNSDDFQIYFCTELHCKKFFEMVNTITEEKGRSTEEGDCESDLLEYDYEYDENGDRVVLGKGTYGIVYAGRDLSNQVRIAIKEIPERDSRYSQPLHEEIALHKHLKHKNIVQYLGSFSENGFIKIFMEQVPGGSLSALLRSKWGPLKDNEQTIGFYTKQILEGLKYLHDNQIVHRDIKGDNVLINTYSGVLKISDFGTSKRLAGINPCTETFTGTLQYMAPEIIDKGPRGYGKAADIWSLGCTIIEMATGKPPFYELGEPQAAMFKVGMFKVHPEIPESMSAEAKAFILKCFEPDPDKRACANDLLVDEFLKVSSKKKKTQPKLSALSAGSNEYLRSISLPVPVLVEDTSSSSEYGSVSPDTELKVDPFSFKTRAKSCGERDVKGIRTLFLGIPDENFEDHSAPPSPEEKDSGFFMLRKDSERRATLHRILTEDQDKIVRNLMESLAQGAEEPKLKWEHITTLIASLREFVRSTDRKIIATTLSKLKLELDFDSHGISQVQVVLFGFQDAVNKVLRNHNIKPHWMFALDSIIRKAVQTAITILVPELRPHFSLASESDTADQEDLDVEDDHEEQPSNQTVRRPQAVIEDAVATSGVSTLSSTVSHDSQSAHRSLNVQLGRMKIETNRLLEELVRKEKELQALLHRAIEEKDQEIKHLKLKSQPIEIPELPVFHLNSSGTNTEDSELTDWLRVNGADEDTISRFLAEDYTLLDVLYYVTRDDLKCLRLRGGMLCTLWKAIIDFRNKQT

Assay [7] deals with Mitogen-activated protein kinase kinase kinase kinase 4 (Homo sapiens, UniProt O95819).
Mitogen-activated protein kinase kinase kinase kinase 4, sequence (O95819 whole entry): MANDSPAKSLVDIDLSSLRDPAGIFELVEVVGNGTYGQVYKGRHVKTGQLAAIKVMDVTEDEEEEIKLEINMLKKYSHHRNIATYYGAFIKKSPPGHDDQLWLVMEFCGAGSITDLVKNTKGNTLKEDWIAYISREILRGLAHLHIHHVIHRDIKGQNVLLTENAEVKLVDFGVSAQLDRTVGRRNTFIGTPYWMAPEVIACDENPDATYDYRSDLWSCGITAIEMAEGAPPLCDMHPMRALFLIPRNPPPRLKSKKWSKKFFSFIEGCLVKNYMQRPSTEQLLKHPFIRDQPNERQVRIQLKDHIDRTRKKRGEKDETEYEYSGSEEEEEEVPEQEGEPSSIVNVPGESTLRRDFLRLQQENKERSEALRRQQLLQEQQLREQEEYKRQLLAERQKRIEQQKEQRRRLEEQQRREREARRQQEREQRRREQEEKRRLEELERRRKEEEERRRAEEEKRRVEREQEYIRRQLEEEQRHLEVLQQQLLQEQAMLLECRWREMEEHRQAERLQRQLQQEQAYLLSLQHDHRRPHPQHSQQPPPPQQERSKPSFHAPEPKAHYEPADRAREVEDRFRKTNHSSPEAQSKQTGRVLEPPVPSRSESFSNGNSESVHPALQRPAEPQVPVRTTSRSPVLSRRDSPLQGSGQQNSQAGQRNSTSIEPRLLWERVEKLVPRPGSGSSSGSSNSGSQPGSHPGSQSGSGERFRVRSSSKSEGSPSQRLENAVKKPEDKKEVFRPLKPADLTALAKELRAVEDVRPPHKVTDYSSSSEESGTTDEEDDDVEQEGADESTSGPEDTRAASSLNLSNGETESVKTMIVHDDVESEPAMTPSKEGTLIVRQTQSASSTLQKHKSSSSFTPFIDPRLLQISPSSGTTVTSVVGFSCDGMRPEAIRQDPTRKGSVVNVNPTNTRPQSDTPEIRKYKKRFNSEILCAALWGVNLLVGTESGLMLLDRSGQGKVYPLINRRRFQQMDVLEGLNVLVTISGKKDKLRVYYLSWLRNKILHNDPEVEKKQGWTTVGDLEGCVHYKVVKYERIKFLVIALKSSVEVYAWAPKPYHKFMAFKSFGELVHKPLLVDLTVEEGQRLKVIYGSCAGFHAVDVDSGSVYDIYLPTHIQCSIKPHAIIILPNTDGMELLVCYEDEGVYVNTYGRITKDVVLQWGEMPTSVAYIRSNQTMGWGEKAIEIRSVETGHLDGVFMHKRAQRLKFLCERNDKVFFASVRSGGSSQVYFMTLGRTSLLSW
Assay [8] addresses T3, Mitogen-activated protein kinase 15 (Homo sapiens, UniProt Q8TD08).
T3 sequence (Q8TD08 whole entry): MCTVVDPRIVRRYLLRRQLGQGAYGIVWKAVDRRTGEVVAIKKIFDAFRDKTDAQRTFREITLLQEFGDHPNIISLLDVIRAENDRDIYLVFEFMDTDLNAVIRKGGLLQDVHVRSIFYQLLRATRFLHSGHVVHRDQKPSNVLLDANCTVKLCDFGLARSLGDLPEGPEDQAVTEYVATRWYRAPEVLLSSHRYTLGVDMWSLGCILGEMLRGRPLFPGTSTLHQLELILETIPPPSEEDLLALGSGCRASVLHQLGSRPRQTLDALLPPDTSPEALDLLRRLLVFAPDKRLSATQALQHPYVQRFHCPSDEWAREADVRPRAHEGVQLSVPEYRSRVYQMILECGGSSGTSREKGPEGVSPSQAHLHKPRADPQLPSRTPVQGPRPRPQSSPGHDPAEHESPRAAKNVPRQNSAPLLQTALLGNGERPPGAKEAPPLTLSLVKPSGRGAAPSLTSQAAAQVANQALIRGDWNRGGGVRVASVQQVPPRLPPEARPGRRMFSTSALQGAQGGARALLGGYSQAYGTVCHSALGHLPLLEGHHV

Tyrosine-protein kinase HCK, sequence (P08631 whole entry): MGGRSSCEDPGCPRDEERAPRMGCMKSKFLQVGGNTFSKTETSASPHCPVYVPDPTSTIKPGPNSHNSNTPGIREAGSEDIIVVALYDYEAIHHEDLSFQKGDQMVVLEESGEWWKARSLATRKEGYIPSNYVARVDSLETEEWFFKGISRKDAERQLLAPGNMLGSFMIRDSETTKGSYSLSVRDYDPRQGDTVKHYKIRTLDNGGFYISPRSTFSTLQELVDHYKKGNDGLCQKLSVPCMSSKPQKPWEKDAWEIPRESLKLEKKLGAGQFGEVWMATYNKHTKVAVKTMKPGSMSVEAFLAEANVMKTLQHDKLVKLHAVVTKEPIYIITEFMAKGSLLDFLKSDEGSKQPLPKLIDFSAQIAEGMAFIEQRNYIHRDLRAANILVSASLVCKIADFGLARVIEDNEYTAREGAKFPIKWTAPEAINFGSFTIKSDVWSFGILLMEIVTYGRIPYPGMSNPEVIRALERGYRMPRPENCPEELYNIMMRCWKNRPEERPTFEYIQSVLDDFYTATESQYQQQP
AP2-associated protein kinase 1, sequence (Q2M2I8 whole entry): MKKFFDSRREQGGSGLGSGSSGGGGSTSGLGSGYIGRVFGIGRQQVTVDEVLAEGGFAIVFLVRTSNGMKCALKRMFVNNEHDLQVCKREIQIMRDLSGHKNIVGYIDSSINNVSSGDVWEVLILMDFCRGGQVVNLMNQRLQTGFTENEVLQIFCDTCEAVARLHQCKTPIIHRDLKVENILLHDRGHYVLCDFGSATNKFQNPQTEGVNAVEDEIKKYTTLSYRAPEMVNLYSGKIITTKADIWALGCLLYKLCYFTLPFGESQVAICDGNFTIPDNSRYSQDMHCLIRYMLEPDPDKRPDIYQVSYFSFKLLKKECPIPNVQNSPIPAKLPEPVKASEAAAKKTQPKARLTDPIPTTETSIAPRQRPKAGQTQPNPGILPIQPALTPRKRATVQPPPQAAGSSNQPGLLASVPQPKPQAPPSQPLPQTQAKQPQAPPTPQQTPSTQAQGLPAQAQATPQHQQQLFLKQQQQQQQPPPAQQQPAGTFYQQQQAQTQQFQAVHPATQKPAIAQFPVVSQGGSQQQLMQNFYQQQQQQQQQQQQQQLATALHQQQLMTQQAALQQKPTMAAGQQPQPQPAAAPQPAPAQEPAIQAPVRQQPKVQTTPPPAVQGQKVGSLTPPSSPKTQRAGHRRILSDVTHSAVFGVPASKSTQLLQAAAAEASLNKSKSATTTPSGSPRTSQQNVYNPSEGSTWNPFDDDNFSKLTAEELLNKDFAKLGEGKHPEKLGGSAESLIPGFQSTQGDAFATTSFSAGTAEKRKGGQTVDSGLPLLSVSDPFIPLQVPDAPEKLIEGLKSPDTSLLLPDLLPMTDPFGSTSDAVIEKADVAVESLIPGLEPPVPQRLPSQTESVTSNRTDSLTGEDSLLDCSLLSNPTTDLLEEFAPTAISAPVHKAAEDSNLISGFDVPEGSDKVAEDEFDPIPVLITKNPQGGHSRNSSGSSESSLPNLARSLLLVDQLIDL

What is called Kd is the concentration at which binding is half-saturated. For the molecule `Cc1ccc(NC(=O)c2ccc(CN3CC[C@H](N(C)C)C3)c(C(F)(F)F)c2)cc1Nc1nccc(-c2cncnc2)n1` [BAFETINIB], the Kd is > 30 µM (inactive) in assay [1]; > 30 µM (inactive) in assay [2]; 0.048 µM (active) in assay [3]; > 30 µM (inactive) in assay [4]; > 30 µM (inactive) in assay [5]; > 30 µM (inactive) in assay [6]. The Kd in assay [7] and in assay [8] was > 30 µM (inactive) throughout.

As to `CN(C)C(=O)c1cc2cnc(Nc3ccc(N4CCNCC4)cn3)nc2n1C1CCCC1` [RIBOCICLIB], the Kd in assay [1], in assay [2], in assay [3], in assay [4], in assay [5] and in assay [6] was > 30 µM (inactive) in each case. Moreover, the Kd in assay [7] and in assay [8] was > 30 µM (inactive) throughout.

As to `COCCNCc1ccc(-c2cc3nccc(Oc4ccc(NC(=S)NC(=O)Cc5ccc(F)cc5)cc4F)c3s2)nc1` [GLESATINIB], the Kd in assay [1] was > 30 µM (inactive); in assay [2], > 30 µM (inactive); in assay [3] it was 1.49 µM (active); in assay [4], > 30 µM (inactive); in assay [5] it was 0.283 µM (active); in assay [6], > 30 µM (inactive). The values for the Kd in assay [7] and in assay [8] were 0.6 µM and > 30 µM (inactive), respectively.

With `Cn1cc(-c2ccc3nnc(C(F)(F)c4ccc5ncccc5c4)n3n2)cn1` [JNJ-38877605], the Kd in assay [1], in assay [2], in assay [3], in assay [4], in assay [5] and in assay [6] was > 30 µM (inactive) throughout. For the same molecule, the Kd in assay [7] and in assay [8] was > 30 µM (inactive) in each case.

Regarding `CC[C@H](Nc1ncnc2[nH]cnc12)c1nc2cccc(F)c2c(=O)n1-c1ccccc1` [IDELALISIB], the Kd in assay [1], in assay [2], in assay [3], in assay [4], in assay [5] and in assay [6] was > 30 µM (inactive) in each case. In addition, the Kd in assay [7] and in assay [8] was > 30 µM (inactive) each time.

In the case of `CN1CC[C@@H](c2c(O)cc(O)c3c(=O)cc(-c4ccccc4Cl)oc23)[C@@H]1CO`, the Kd in assay [1], in assay [2], in assay [3], in assay [4], in assay [5] and in assay [6] was > 30 µM (inactive) throughout. For the same molecule, the Kd in assay [7] and in assay [8] was > 30 µM (inactive) in each case.

As to `CN1N=C(N)c2cn([C@@H]3O[C@H](COP(=O)(O)O)[C@@H](O)[C@H]3O)c3ncnc1c23` [TRICIRIBINE PHOSPHATE], the Kd in assay [1], in assay [2], in assay [3], in assay [4], in assay [5] and in assay [6] was > 30 µM (inactive) each time. Besides, the Kd in assay [7] and in assay [8] was > 30 µM (inactive) each time.

With `O=C(c1ccc(F)c(F)c1Nc1ccc(I)cc1F)N1CC(O)([C@@H]2CCCCN2)C1` [COBIMETINIB], the Kd in assay [1], in assay [2], in assay [3], in assay [4], in assay [5] and in assay [6] was > 30 µM (inactive) throughout. Further, the Kd in assay [7] and in assay [8] was > 30 µM (inactive) each time.

As to `Cc1cc(-c2cc(O)ccc2Cl)cc2nnc(Nc3ccc(OCCN4CCCC4)cc3)nc12`, the Kd is > 30 µM (inactive) in assay [1]; > 30 µM (inactive) in assay [2]; 0.004 µM (active) in assay [3]; > 30 µM (inactive) in assay [4]; > 30 µM (inactive) in assay [5]; > 30 µM (inactive) in assay [6]. For the same molecule, the Kd in assay [7] and in assay [8] was > 30 µM (inactive) in each case.
